Measured values reported in patent US20220380341A1, “INHIBITORS OF HIV-1 NEF FOR THE TREATMENT OF HIV DISEASE” (priority 2018, published 2022).
Where two headings read alike, the source gives them in different places.

Key:
HIV-1NL4-3 = assay: HIV-1 infectivity assay in TZM-bl reporter cell line (LTR-luciferase, 48 h); assay type: cell-based; details: Human immunodeficiency virus 1, TZM-bl
Summary of the method: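 Read-out is luciferase from an integrated HIV-1 LTR reporter in TZM-bl cells, 48 h after HIV-1NL4-3 infection in the presence of 1 μM compound. Scale set by DMSO-treated wild-type-infected cells (0%) and Nef-defective virus (100% Nef-dependent effect). Cell Titer Blue measures cytotoxicity without virus.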

HIV-1 NefNL4-3 = HIV-1 NefNL4-3 (Human immunodeficiency virus type 1 group M subtype B, UniProt P03406, A33V/T15A/T51N/V11I); assay: Surface plasmon resonance binding to recombinant full-length Nef (NL4-3); details: for Nef NL4-3 Binding, SPR 1:1 or 2-site fitting KD1: 1:1 Langmuir fit where the KD2 cell says '1 to 1 fitting', else 2-site fit; for RU30/RUNef (extent of binding): response units at 30 μM relative to Nef immobilized on the SPR chip
TZM-bl cell line = assay type: cell-based; details: human, 1 μM
Summary of the method: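 Nef-dependent infectivity in TZM-bl cells: HIV-1NL4-3 infection with 1 μM compound, luciferase read at 48 h, normalized against DMSO wild-type and Nef-defective controls. Compound cytotoxicity in uninfected cells measured by Cell Titer Blue.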

[1] = 48 h, Table 1, TZM-bl cells, 1 μM, 48 h, 100% = Nef-defective HIV-1, read-out: HIV-1 Infectivity % Inhibition Norm. to Δ-Nef @ 1 μM
[2] = 48 h, Table 2, TZM-bl cells, 1 μM, 48 h, 100% = Nef-defective HIV-1, read-out: HIV-1 Infectivity % Inhibition Norm. to Δ-Nef @ 1 μM
[3] = 1.0 μM, TZM-bl reporter cell line, Table 4, read-out: % Infectivity Inhibition
[4] = KD, M, Table 4, SPR fit 1:1 Langmuir, KD = koff/kon
[5] = Table 4, 1:1 Langmuir fit, T = 1/koff

Row | SMILES | inhibition at 1 µM (HIV-1NL4-3; [1]) [%] | Kd (HIV-1 NefNL4-3) [nM] | Percent Viability @ 1 μM (TZM-bl cells) (TZM-bl cell line) [%] | inhibition at 1 µM (HIV-1NL4-3; [2]) [%] | Nef NL4-3 Binding, SPR 1:1 or 2-site fitting KD1 (HIV-1 NefNL4-3; Table 2) | inhibition at 1 µM (HIV-1NL4-3; [3]) [%] | Kd (HIV-1 NefNL4-3; KD, M, Table 4, SPR fit 2-step induced fit, KD = koff/kon × koff2/(koff2 + kon2)) [nM] | Kd (HIV-1 NefNL4-3; Nef NL4-3 Binding, SPR 1:1 or 2-site fitting KD2, Table 2, 2-site fit, second component) [nM] | Kd (HIV-1 NefNL4-3; Nef NL4-3 Binding, SPR 2-state fitting KD, Table 2, 2-step induced-fit model) [nM] | T, minutes (residence time) (HIV-1 NefNL4-3; Table 4, 2-step induced fit, T = 1/koff2) [E + 00 minutes] | RU30/RUNef (extent of binding) (HIV-1 NefNL4-3) | % Cell Viability (TZM-bl cell line) [%] | Kd (HIV-1 NefNL4-3; [4]) [nM] | T, minutes (residence time) (HIV-1 NefNL4-3; [5])
1 | Oc1c(CCc2ccc(F)cc2)c(CC2CCCNC2)nn1-c1nc2ccccc2[nH]1 (stereo not shown) [Compound I-556, 1-(1H-1,3-benzodiazol-2-yl)-4-[2-(4-fluorophenyl)ethyl]-3-[(piperidin-3-yl)methyl]-1H-pyrazol-5-ol] | 18.1 | 783 | 86.1 |  |  |  |  |  |  |  |  |  |  | 
2 | Oc1c(CCc2ccc(F)cc2)c(-c2ccc(C(F)(F)F)cn2)nn1-c1cc(C(F)(F)F)n[nH]1 [Compound I-602, 4-[2-(4-fluorophenyl)ethyl]-5′-(trifluoromethyl)-3-[5-(trifluoromethyl)pyridin-2-yl]-2′H-[1,3′-bipyrazol]-5-ol] |  |  | 97.2 | 73.8 | No interaction |  |  |  |  |  |  |  |  | 
3 | CS(=O)(=O)c1ccc(-c2nn(-c3cc(C(F)(F)F)n[nH]3)c(O)c2CCc2ccc(F)cc2)cc1 [Compound I-603, 4-[2-(4-fluorophenyl)ethyl]-3-(4-methanesulfonylphenyl)-5′-(trifluoromethyl)-2′H-[1,3′-bipyrazol]-5-ol] |  | 1830 | 106.0 | 57.8 |  | 57.8 | 35100 | 3600 | 58 | 2.18 | 1.19E- 02 | 100 |  | 
4 | CS(=O)(=O)c1cccc(-c2nn(-c3cc(C(F)(F)F)n[nH]3)c(O)c2CCC2CCOCC2)c1 [Compound I-608, 3-(3-methanesulfonylphenyl)-4-[2-(oxan-4-yl)ethyl]-5′-(trifluoromethyl)-2′H-[1,3′-bipyrazol]-5-ol] |  |  | 101.2 | 5.3 | No interaction |  |  |  |  |  |  |  |  | 
5 | CS(=O)(=O)c1ccc(-c2nn(-c3cc(C(F)(F)F)n[nH]3)c(O)c2CCC2CCOCC2)cc1 [Compound I-611, 3-(4-methanesulfonylphenyl)-4-[2-(oxan-4-yl)ethyl]-5′-(trifluoromethyl)-2′H-[1,3′-bipyrazol]-5-ol] |  |  | 99.6 | 65.7 | No interaction |  |  |  |  |  |  |  |  | 
6 | Oc1c(CCc2ccncc2)c(-c2cccc(F)c2)nn1-c1cc(C(F)(F)F)n[nH]1 [Compound I-615, 3-(3-fluorophenyl)-4-[2-(pyridin-4-yl)ethyl]-5′-(trifluoromethyl)-2′H-[1,3′-bipyrazol]-5-ol] |  |  | 98.9 | 47.9 | No interaction |  |  |  |  |  |  |  |  | 
7 | O=C(O)c1ccc(CCc2c(-c3ccccc3)nn(-c3cc(C(F)(F)F)n[nH]3)c2O)cc1 [Compound I-618, 4-{2-[5-hydroxy-3-phenyl-5′-(trifluoromethyl)-2′H-[1,3′-bipyrazol]-4-yl]ethyl}benzoic acid] |  |  | 93.8 | 0 | No interaction |  |  |  |  |  |  |  |  | 
8 | Oc1c(CCc2ccc(F)cc2)c(-c2ccc(C(F)(F)F)cc2)nn1-c1cc(C2CC2)n[nH]1 [Compound I-619, 5′-cyclopropyl-4-[2-(4-fluorophenyl)ethyl]-3-[4-(trifluoromethyl)phenyl]-2′H-[1,3′-bipyrazol]-5-ol] |  |  | 105.5 | 0 | No interaction |  |  |  |  |  |  |  |  | 
9 | Oc1c(CC2CCOCC2)c(C2CCOCC2)nn1-c1cc(C(F)(F)F)n[nH]1 [Compound I-621, 3-(oxan-4-yl)-4-[(oxan-4-yl)methyl]-5′-(trifluoromethyl)-2′H-[1,3′-bipyrazol]-5-ol] |  |  | 95.3 | 42.4 | No interaction |  |  |  |  |  |  |  |  | 
10 | Oc1c(CC2CCOCC2)c(C2CC2)nn1-c1cc(C(F)(F)F)n[nH]1 [Compound I-622, 3-cyclopropyl-4-[(oxan-4-yl)methyl]-5′-(trifluoromethyl)-2′H-[1,3′-bipyrazol]-5-ol] |  |  | 98.5 | 4.9 | No interaction |  |  |  |  |  |  |  |  | 
11 | Oc1c(CCc2ccc(F)cc2)c(C2CCOCC2)nn1-c1cc(C(F)(F)F)n[nH]1 [Compound I-623, 4-[2-(4-fluorophenyl)ethyl]-3-(oxan-4-yl)-5′-(trifluoromethyl)-2′H-[1,3′-bipyrazol]-5-ol] |  | 221000 | 100.7 | 17.4 |  | 17.4 |  |  |  |  | 1.67E- 02 | 100 | 221000 | 2.88E + 00 minutes
12 | CC(=O)N1CCC(c2nn(-c3nc4cc(Cl)ccc4[nH]3)c(O)c2CCC2CCOCC2)CC1 [Compound I-703, 1-{4-[1-(5-chloro-1H-1,3-benzodiazol-2-yl)-5-hydroxy-4-[2-(oxan-4-yl)ethyl]-1H-pyrazol-3-yl]piperidin-1-yl}ethan-1-one] | -8.1 | 1540 | 99.2 |  |  |  |  |  |  |  |  |  |  | 
13 | CC(=O)N1CCC(c2nn(-c3nc4cc(Cl)ccc4[nH]3)c(O)c2CCn2nccn2)CC1 [Compound I-704, 1-{4-[1-(5-chloro-1H-1,3-benzodiazol-2-yl)-5-hydroxy-4-[2-(2H-1,2,3-triazol-2-yl)ethyl]-1H-pyrazol-3-yl]piperidin-1-yl}ethan-1-one] | 6.6 | 3620 | 99.4 |  |  | 6.6 |  |  |  |  | 1.92E- 03 | 99.4 | 3620 | 7.61E + 00 minutes
14 | COC(=O)N1CCC(c2nn(-c3nc4cc(Cl)ccc4[nH]3)c(O)c2CCn2nccn2)CC1 [Compound I-705, methyl 4-[1-(5-chloro-1H-1,3-benzodiazol-2-yl)-5-hydroxy-4-[2-(2H-1,2,3-triazol-2-yl)ethyl]-1H-pyrazol-3-yl]piperidine-1-carboxylate] | -13.8 | 1110 | 100.9 |  |  |  |  |  |  |  |  |  |  | 
15 | CS(=O)(=O)N1CCC(c2nn(-c3nc4cc(Cl)ccc4[nH]3)c(O)c2CCC2CCOCC2)CC1 [Compound I-706, 1-(5-chloro-1H-1,3-benzodiazol-2-yl)-3-(1-methanesulfonylpiperidin-4-yl)-4-[2-(oxan-4-yl)ethyl]-1H-pyrazol-5-ol] | 9.8 | 1170 | 98.6 |  |  | 9.8 |  |  |  |  | 2.34E- 03 | 98.6 | 1170 | 3.95E + 00 minutes
16 | CS(=O)(=O)N1CCC(c2nn(-c3nc4cc(Cl)ccc4[nH]3)c(O)c2CCn2nccn2)CC1 [Compound I-707, 1-(5-chloro-1H-1,3-benzodiazol-2-yl)-3-(1-methanesulfonylpiperidin-4-yl)-4-[2-(2H-1,2,3-triazol-2-yl)ethyl]-1H-pyrazol-5-ol] | -10.6 | 1980 | 109.3 |  |  | 0 |  |  |  |  | 1.81E- 03 | 100 | 1980 | 4.33E + 00 minutes
17 | COC(=O)N1CCC(CCc2c(-c3ccc(C(F)(F)F)cn3)nn(-c3nc4cc(Br)ccc4[nH]3)c2O)CC1 [Compound I-708, methyl 4-{2-[1-(5-bromo-1H-1,3-benzodiazol-2-yl)-5-hydroxy-3-[5-(trifluoromethyl)pyridin-2-yl]-1H-pyrazol-4-yl]ethyl}piperidine-1-carboxylate] | 117 | 1.4 | 77.8 |  |  | 100 |  |  |  |  | 2.04E- 03 | 77.8 | 1.4 | 1.00E + 04 minutes
18 | CC(=O)N1CCC(CCc2c(-c3ccc(C(F)(F)F)cn3)nn(-c3nc4cc(Br)ccc4[nH]3)c2O)CC1 [Compound I-709, 1-(4-{2-[1-(5-bromo-1H-1,3-benzodiazol-2-yl)-5-hydroxy-3-[5-(trifluoromethyl)pyridin-2-yl]-1H-pyrazol-4-yl]ethyl}piperidin-1-yl)ethan-1-one] | 66.7 | 26.3 | 74.0 |  |  | 66.7 |  |  |  |  | 8.85E- 04 | 74.0 | 26.3 | 5.18E + 02 minutes
